Source: PMC6199744, “Development of Chemical Proteomics for the Folateome and Analysis of the Kinetoplastid Folateome” (ACS Infectious Diseases, 2018)
Several values for one entry are separate records, joined by “and”; a condition that tells them apart may be missing. Identical values can stand only once. Like-named read-outs stand apart in the source and are kept apart here.

Tested on: T. brucei lysate proteins
Type: binding, Trypanosoma brucei

## NCCOCCOCC(=O)Nc1nc2ncc(CNc3ccc(C(=O)NC(CCC(=O)O)C(=O)O)cc3)nc2c(=O)[nH]1 (stereo not shown) [compound 6]
  fold change vs vehicle control: 0.88 and 0.97 and 1.1 and 0.99 and 0.76 and 1
Protein CZB00000046.1 HA-UBIQUITIN, vehicle control = 1
  fold change: 0.9
Protein CZT00018965.1 RETRO[…] (RHS) PROTEIN 1, vehicle control = 1
  fold change: 1.49
Protein RHS6A, vehicle control = 1
  fold change: 1
Protein TB09.160.3270 ATP-DEPENDENT DEAD BOX HELICASE, PUTATIVE, vehicle control = 1
  fold change vs vehicle control: 1.28
Protein TB09.160.4200 60S ACIDIC RIBOSOMAL PROTEIN, PUTATIVE, vehicle control = 1
  fold change vs vehicle control: 0.88
Protein TB09.211.2630 60S RIBOSOMAL PROTEIN L23, PUTATIVE, vehicle control = 1
  fold change vs vehicle control: 0.96
Protein TB09.211.4760 METACASPASE 5, PUTATIVE, vehicle control = 1
  fold change: 0.82
Protein TB11.01.1690 HY[…], CONSERVED, vehicle control = 1
  fold change: 1.19
Protein TB11.01.2560 40S RIBOSOMAL PROTEIN SA, PUTATIVE, vehicle control = 1
  fold change vs vehicle control: 0.94
Protein TB11.01.3180 GUANINE NUCLEOTIDE-BINDING PROTEIN BETA SUBUNIT-LIKE PROTEIN, vehicle control = 1
  fold change vs vehicle control: 0.97
Protein TB11.01.3560 VACUOLAR ATP SYNTHASE SUBUNIT B, PUTATIVE, vehicle control = 1
  fold change: 0.93
Protein TB11.01.4370 HY[…], CONSERVED, vehicle control = 1
  fold change vs vehicle control: 0.96
Protein TB11.01.5350 PROFILIN, vehicle control = 1
  fold change: 0.97
Protein TB11.01.5910 DYNEIN IN[…] IC70, PUTATIVE, vehicle control = 1
  fold change vs vehicle control: 0.99
Protein TB11.01.8590 RAB-LIKE 5, SMALL G PROTEIN, vehicle control = 1
  fold change: 0.94
Protein TB11.01.8740 PROTEIN PHOSPHATASE 4, PUTATIVE, vehicle control = 1
  fold change: 0.8
Protein TB11.02.0730 METACASPASE, vehicle control = 1
  fold change vs vehicle control: 0.84
Protein TB11.02.1135 DYNEIN LIGHT CHAIN, PUTATIVE, vehicle control = 1
  fold change vs vehicle control: 1.14
Protein TB11.02.2040 HY[…], CONSERVED (ALBA-Domain Protein), vehicle control = 1
  fold change vs vehicle control: 1.34
Protein TB11.02.2420 HY[…], CONSERVED, vehicle control = 1
  fold change vs vehicle control: 0.9
Protein TB11.02.2510 GUANINE NUCLEOTIDE-BINDING BETA SUBUNIT-LIKE PROTEIN, vehicle control = 1
  fold change vs vehicle control: 1
Protein TB11.02.2640 DYNEIN IN[…] IC78, PUTATIVE, vehicle control = 1
  fold change vs vehicle control: 0.97
Protein TB11.02.2960 MIT[…] PROTEIN, PUTATIVE, vehicle control = 1
  fold change: 0.88
Protein TB11.03.0250 C[…], vehicle control = 1
  fold change vs vehicle control: 1.45
Protein TB11.46.0009 HY[…], CONSERVED, vehicle control = 1
  fold change: 0.99
Protein TB427TMP.01.1680 POLYUBIQUITIN, PUTATIVE, vehicle control = 1
  fold change vs vehicle control: 1.25
Protein TB427TMP.01.1830 HY[…], CONSERVED, vehicle control = 1
  fold change: 0.89
Protein TB427TMP.01.4280 HY[…], CONSERVED, vehicle control = 1
  fold change vs vehicle control: 0.84
Protein TB427TMP.01.4750 […] 1 GAMMA, PUTATIVE, vehicle control = 1
  fold change: 1
Protein TB427TMP.01.5000 HY[…], CONSERVED, vehicle control = 1
  fold change vs vehicle control: 0.91
Protein TB427TMP.01.5680 HY[…], CONSERVED, vehicle control = 1
  fold change vs vehicle control: 1.21
Protein TB427TMP.01.5960 MIT[…] PROTEIN, PUTATIVE, vehicle control = 1
  fold change: 0.82
Protein TB427TMP.01.6890 SMALL GTPASE, PUTATIVE, vehicle control = 1
  fold change vs vehicle control: 1.56
Protein TB427TMP.01.7490 HY[…], CONSERVED, vehicle control = 1
  fold change: 0.97
Protein TB427TMP.01.8390 HY[…], CONSERVED, vehicle control = 1
  fold change: 0.88
Protein TB427TMP.02.0030 DYNEIN HEAVY CHAIN, PUTATIVE, vehicle control = 1
  fold change: 1
Protein TB427TMP.02.0760 DYNEIN HEAVY CHAIN, PUTATIVE, vehicle control = 1
  fold change: 0.82
Protein TB427TMP.02.1070 AMINOPEPTIDASE, PUTATIVE, vehicle control = 1
  fold change: 1.1
Protein TB427TMP.02.1460 HY[…], CONSERVED, vehicle control = 1
  fold change: 0.98
Protein TB427TMP.02.1860 HY[…], CONSERVED, vehicle control = 1
  fold change: 0.97
Protein TB427TMP.02.2070 LONG-CHAIN-FATTY-ACID-COA LIGASE, PUTATIVE, vehicle control = 1
  fold change vs vehicle control: 0.99
Protein TB427TMP.02.2120 NUCLEOPORIN 48, vehicle control = 1
  fold change vs vehicle control: 1.18
Protein TB427TMP.02.2890 HY[…], CONSERVED, vehicle control = 1
  fold change vs vehicle control: 0.94
Protein TB427TMP.02.4100 PRETRA[…], ALPHA SUBUNIT, PUTATIVE, vehicle control = 1
  fold change: 1.3
Protein TB427TMP.02.4550 HY[…], CONSERVED, vehicle control = 1
  fold change: 0.88
Protein TB427TMP.02.5660 HY[…], CONSERVED, vehicle control = 1
  fold change: 0.95
Protein TB427TMP.02.5720 RIBONUCLEOSIDE-DIPHOSPHATE REDUCTASE LARGE CHAIN, vehicle control = 1
  fold change vs vehicle control: 0.88
Protein TB427TMP.160.2370 HY[…], CONSERVED, vehicle control = 1
  fold change: 0.93
Protein TB427TMP.160.3630 CAMP-SPECIFIC PHOSPHODIESTERASE, vehicle control = 1
  fold change: 0.97
Protein TB427TMP.160.4240 […] PROTEIN-LIKE PROTEIN, vehicle control = 1
  fold change: 1.2
Protein TB427TMP.160.4450 40S RIBOSOMAL PROTEIN S3, PUTATIVE, vehicle control = 1
  fold change vs vehicle control: 1.12
Protein TB427TMP.160.4560 ARGININE KINASE, vehicle control = 1
  fold change vs vehicle control: 1.65
Protein TB427TMP.160.4630 HY[…], CONSERVED, vehicle control = 1
  fold change vs vehicle control: 0.88
Protein TB427TMP.160.4770 PROTEIN KINASE, PUTATIVE, vehicle control = 1
  fold change: 0.84
Protein TB427TMP.160.4910 FLAVOPROTEIN MONOOXYGENASE, PUTATIVE, vehicle control = 1
  fold change: 0.97
Protein TB427TMP.160.5670 HY[…], CONSERVED, vehicle control = 1
  fold change: 0.99
Protein TB427TMP.211.2460 HY[…], CONSERVED, vehicle control = 1
  fold change: 0.99
Protein TB427TMP.211.2570 T-COMPLEX PROTEIN 1, ETA SUBUNIT, PUTATIVE, vehicle control = 1
  fold change vs vehicle control: 0.91
Protein TB427TMP.211.3140 HY[…], CONSERVED, vehicle control = 1
  fold change vs vehicle control: 1.47
Protein TB427TMP.211.3510 ATP-DEPENDENT DEAD/H RNA HELICASE, PUTATIVE, vehicle control = 1
  fold change vs vehicle control: 0.88
Protein TB427TMP.211.4170 HY[…], CONSERVED, vehicle control = 1
  fold change vs vehicle control: 0.88
Protein TB427TMP.47.0011 HY[…], CONSERVED, vehicle control = 1
  fold change: 0.93
Protein TB427TMP.55.0006 INTR[…] PROTEIN IFT88, vehicle control = 1
  fold change vs vehicle control: 0.95
Protein TB427TMP.57.0008 CALPAIN-LIKE PROTEIN, PUTATIVE, vehicle control = 1
  fold change vs vehicle control: 0.97
Protein TB427TMP.V1.0370 HY[…], CONSERVED, vehicle control = 1
  fold change: 0.88
Protein TB427.01.120 RETRO[…] SPOT (RHS) PROTEIN, PUTATIVE, vehicle control = 1
  fold change vs vehicle control: 0.88
Protein TB427.01.2570 COATOMER BETA SUBUNIT, vehicle control = 1
  fold change: 0.88
Protein TB427.01.420 RETRO[…] SPOT (RHS) PROTEIN, PUTATIVE, vehicle control = 1
  fold change: 0.97
Protein TB427.01.5030 LEUCINE-RICH REPEAT PROTEIN (LRRP), PUTATIVE, vehicle control = 1
  fold change: 0.93
Protein TB427.02.2970 MIT[…] PROTEIN, PUTATIVE, vehicle control = 1
  fold change vs vehicle control: 1.21
Protein TB427.02.6050 BETA PRIME COP PROTEIN, vehicle control = 1
  fold change vs vehicle control: 1.36
Protein TB427.03.1210 PROTEIN TRANSPORT PROTEIN SEC24, vehicle control = 1
  fold change vs vehicle control: 1.1
Protein TB427.03.3160 POLY(A) POLYMERASE, vehicle control = 1
  fold change vs vehicle control: 0.47
Protein TB427.03.4040 HY[…], CONSERVED (Ankyrinrepeat), vehicle control = 1
  fold change vs vehicle control: 2.65
Protein TB427.03.4750 AMINOPEPTIDASE, PUTATIVE, vehicle control = 1
  fold change vs vehicle control: 1.1
Protein TB427.03.4910 SIGNAL PEPTIDE PEPTIDASE, PUTATIVE, vehicle control = 1
  fold change: 1.22
Protein TB427.04.1300 HY[…], CONSERVED, vehicle control = 1
  fold change: 1.2
Protein TB427.04.1510 PHOSPHOLIPID-TRA[…], PUTATIVE, vehicle control = 1
  fold change vs vehicle control: 1
Protein TB427.04.2340 HY[…], CONSERVED, vehicle control = 1
  fold change: 0.92
Protein TB427.04.310 HY[…], CONSERVED, vehicle control = 1
  fold change: 0.6
Protein TB427.04.420 PHOSPHATIDYLINOSITOL 3-KINASE (TOR2), vehicle control = 1
  fold change: 0.71
Protein TB427.04.450 COATOMER ALPHA SUBUNIT, PUTATIVE, vehicle control = 1
  fold change: 0.86
Protein TB427.04.4870 AMINO ACID TRANSPORTER, PUTATIVE, vehicle control = 1
  fold change vs vehicle control: 1.1
Protein TB427.04.5010 CALRETICULIN, PUTATIVE, vehicle control = 1
  fold change: 1.53
Protein TB427.05.1700 R[…] A 28 KDA SUBUNIT, PUTATIVE, vehicle control = 1
  fold change vs vehicle control: 1.31
Protein TB427.05.3260 HY[…], CONSERVED, vehicle control = 1
  fold change vs vehicle control: 0.88
Protein TB427.05.4560 GUANINE DEAMINASE, PUTATIVE, vehicle control = 1
  fold change vs vehicle control: 0.93
Protein TB427.06.1070 HY[…], CONSERVED, vehicle control = 1
  fold change vs vehicle control: 0.94
Protein TB427.06.1500 ALKYL-DIHYDR[…] SYNTHASE, vehicle control = 1
  fold change vs vehicle control: 0.97
Protein TB427.06.1800 PROTEIN PHOSPHATASE 2C, PUTATIVE, vehicle control = 1
  fold change: 0.92
